ChEMBL document CHEMBL1145498, “A systematic interaction map of validated kinase inhibitors with Ser/Thr kinases” (Proc Natl Acad Sci U S A, 2007)

biological target: 5'-AMP-activated protein kinase catalytic subunit alpha-2 (Homo sapiens) (UniProt P54646)
Sequence (P54646 whole entry, looked up): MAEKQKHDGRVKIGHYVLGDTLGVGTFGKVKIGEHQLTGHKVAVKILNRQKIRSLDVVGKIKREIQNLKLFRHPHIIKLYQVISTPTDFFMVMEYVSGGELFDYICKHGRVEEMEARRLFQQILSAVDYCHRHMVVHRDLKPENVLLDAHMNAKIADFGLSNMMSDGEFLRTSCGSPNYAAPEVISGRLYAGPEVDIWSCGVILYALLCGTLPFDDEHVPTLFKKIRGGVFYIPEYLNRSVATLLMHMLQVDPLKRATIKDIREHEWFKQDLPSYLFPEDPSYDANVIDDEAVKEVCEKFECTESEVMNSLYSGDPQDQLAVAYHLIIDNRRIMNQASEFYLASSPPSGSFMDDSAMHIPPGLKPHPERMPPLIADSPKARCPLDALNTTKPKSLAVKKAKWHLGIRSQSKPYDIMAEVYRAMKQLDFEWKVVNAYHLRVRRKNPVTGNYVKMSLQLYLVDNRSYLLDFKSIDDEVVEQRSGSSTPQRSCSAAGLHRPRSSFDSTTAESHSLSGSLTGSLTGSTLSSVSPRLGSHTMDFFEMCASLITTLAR

First: O=C1C(Cl)=C(N2C(=O)CCC2=O)C(=O)c2ccccc21
Second: O=C1Nc2ccc(S(=O)(=O)O)cc2/C1=C1/Nc2ccccc2/C1=N\O
The ΔTm of the first is lower: 0.6 °C for the first, 5.5 °C for the second.

With `C[S+]([O-])c1ccc(-c2nc(-c3ccc(F)cc3)c(-c3ccncc3)[nH]2)cc1` (stereo not given) [SB-203580] the ΔTm was -0.9 °C.

biological target: Calcium/calmodulin-dependent protein kinase kinase 2 (Homo sapiens, UniProt Q96RR4)
Sequence (Q96RR4 2-588 limits assumed): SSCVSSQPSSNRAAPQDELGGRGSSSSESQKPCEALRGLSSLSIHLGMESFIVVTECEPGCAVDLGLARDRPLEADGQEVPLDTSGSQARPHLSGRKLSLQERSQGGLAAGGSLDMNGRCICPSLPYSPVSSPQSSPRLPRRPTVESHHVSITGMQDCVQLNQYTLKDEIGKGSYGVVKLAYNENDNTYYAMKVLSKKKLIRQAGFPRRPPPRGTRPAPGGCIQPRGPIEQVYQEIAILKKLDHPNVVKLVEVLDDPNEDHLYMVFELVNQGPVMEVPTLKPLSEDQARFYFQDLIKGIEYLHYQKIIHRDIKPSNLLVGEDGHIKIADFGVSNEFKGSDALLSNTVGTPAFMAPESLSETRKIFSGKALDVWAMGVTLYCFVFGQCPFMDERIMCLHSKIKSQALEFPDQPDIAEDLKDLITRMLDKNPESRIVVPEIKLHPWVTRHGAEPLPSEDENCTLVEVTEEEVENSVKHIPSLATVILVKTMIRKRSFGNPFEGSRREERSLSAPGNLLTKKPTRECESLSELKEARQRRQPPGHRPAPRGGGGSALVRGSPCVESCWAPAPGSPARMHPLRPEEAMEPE

First: O=C1C(Cl)=C(N2C(=O)CCC2=O)C(=O)c2ccccc21
Second: O=C1Nc2ccc(S(=O)(=O)O)cc2/C1=C1/Nc2ccccc2/C1=N\O
The ΔTm of the first is lower: -2.5 °C for the first, 4.9 °C for the second.

With `C[S+]([O-])c1ccc(-c2nc(-c3ccc(F)cc3)c(-c3ccncc3)[nH]2)cc1` (stereo not given) [SB-203580] the ΔTm was 0 °C.

biological target: Casein kinase I isoform gamma-3 (Homo sapiens) (UniProt Q9Y6M4)

First: O=C1C(Cl)=C(N2C(=O)CCC2=O)C(=O)c2ccccc21
Second: O=C1Nc2ccc(S(=O)(=O)O)cc2/C1=C1/Nc2ccccc2/C1=N\O
The ΔTm of the first is lower: 0.1 °C for the first, 3.7 °C for the second.

Work on `C[S+]([O-])c1ccc(-c2nc(-c3ccc(F)cc3)c(-c3ccncc3)[nH]2)cc1` (stereo not given) [SB-203580] yielded a ΔTm of 0.4 °C.

biological target: Tyrosine-protein kinase JAK1 (Homo sapiens) (UniProt P23458)
Sequence (P23458 whole entry): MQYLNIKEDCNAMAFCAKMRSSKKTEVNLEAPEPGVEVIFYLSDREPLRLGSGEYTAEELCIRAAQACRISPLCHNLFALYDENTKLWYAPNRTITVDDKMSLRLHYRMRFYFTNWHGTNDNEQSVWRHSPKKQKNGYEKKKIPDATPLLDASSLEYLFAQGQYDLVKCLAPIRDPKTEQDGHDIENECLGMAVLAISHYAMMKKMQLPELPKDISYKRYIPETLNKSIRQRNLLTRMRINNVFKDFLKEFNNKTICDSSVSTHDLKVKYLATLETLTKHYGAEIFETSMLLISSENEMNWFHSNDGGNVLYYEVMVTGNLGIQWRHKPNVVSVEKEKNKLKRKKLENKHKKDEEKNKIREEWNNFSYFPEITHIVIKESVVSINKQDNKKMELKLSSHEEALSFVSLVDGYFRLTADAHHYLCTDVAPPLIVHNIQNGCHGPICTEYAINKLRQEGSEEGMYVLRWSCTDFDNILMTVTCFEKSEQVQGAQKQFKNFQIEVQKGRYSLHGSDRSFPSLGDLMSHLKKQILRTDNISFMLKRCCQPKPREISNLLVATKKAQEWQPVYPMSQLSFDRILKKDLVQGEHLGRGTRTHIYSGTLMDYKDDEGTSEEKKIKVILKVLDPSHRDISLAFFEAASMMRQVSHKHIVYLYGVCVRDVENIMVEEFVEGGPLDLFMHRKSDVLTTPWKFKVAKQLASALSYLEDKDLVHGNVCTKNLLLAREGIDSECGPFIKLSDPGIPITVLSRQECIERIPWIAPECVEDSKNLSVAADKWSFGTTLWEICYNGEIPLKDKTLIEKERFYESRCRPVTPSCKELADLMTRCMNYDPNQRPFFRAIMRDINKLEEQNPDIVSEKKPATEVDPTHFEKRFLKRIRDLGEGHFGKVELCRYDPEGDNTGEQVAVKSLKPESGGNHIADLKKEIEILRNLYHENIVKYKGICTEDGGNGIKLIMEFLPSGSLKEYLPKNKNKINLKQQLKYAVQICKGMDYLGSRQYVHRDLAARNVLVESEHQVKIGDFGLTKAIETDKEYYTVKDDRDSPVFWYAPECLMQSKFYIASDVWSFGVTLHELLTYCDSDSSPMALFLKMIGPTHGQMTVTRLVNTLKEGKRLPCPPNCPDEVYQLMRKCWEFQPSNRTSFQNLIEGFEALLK

Compared with `O=C1C(Cl)=C(N2C(=O)CCC2=O)C(=O)c2ccccc21`, `O=C1Nc2ccc(S(=O)(=O)O)cc2/C1=C1/Nc2ccccc2/C1=N\O` is higher in ΔTm: -2.9 °C for the first, 4.3 °C for the second.

With `C[S+]([O-])c1ccc(-c2nc(-c3ccc(F)cc3)c(-c3ccncc3)[nH]2)cc1` (stereo not given) [SB-203580] the ΔTm was 2.3 °C.

biological target: T1, Mitogen-activated protein kinase kinase kinase 5 (Homo sapiens) (UniProt Q99683)
T1 sequence (whole entry): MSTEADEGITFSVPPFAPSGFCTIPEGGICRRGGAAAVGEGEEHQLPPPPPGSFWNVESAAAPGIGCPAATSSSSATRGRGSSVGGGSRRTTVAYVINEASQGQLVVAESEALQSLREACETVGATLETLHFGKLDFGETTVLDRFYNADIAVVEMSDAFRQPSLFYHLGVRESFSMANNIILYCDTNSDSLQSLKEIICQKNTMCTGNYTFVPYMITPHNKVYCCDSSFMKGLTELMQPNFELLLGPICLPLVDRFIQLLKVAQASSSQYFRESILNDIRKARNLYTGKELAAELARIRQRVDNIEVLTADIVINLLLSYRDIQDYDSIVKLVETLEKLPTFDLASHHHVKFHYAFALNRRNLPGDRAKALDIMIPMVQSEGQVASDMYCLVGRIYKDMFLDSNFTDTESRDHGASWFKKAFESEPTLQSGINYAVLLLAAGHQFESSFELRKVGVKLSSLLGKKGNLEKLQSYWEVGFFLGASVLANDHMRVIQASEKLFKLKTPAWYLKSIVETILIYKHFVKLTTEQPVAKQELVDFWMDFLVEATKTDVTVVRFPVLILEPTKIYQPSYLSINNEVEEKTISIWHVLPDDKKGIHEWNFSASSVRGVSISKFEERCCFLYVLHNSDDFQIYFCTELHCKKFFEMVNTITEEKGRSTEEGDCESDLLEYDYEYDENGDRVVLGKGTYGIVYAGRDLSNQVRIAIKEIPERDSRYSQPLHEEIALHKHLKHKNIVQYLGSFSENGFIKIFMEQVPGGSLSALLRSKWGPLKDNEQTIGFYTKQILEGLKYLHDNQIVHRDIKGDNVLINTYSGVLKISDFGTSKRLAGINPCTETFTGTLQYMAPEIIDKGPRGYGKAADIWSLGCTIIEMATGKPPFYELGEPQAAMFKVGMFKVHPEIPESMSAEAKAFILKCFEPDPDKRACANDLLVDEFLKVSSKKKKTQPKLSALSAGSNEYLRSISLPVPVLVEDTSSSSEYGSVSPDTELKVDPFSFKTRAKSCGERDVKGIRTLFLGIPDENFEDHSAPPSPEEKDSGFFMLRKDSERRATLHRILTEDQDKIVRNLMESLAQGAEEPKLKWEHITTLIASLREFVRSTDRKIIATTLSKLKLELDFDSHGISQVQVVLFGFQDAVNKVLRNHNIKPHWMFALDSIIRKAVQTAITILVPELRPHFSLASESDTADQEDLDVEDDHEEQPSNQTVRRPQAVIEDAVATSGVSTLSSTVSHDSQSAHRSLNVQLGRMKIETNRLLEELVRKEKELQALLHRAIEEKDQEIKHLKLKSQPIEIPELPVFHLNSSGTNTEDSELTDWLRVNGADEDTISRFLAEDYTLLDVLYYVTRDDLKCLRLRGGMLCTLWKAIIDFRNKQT

Compared with `O=C1C(Cl)=C(N2C(=O)CCC2=O)C(=O)c2ccccc21`, `O=C1Nc2ccc(S(=O)(=O)O)cc2/C1=C1/Nc2ccccc2/C1=N\O` is higher in ΔTm: -1.1 °C for the first, 3.8 °C for the second.

`C[S+]([O-])c1ccc(-c2nc(-c3ccc(F)cc3)c(-c3ccncc3)[nH]2)cc1` (stereo not given) [SB-203580] was tested, and the ΔTm was 0.3 °C.

biological target: Serine/threonine-protein kinase 26 (Homo sapiens) (UniProt Q9P289)

First: O=C1C(Cl)=C(N2C(=O)CCC2=O)C(=O)c2ccccc21
Second: O=C1Nc2ccc(S(=O)(=O)O)cc2/C1=C1/Nc2ccccc2/C1=N\O
The ΔTm of the first is lower: -1.4 °C for the first, 1.2 °C for the second.

`C[S+]([O-])c1ccc(-c2nc(-c3ccc(F)cc3)c(-c3ccncc3)[nH]2)cc1` (stereo not given) [SB-203580] gave a ΔTm of -0.5 °C.

biological target: Serine/threonine-protein kinase Nek6 (Homo sapiens) (UniProt Q9HC98)
Sequence (Q9HC98 whole entry): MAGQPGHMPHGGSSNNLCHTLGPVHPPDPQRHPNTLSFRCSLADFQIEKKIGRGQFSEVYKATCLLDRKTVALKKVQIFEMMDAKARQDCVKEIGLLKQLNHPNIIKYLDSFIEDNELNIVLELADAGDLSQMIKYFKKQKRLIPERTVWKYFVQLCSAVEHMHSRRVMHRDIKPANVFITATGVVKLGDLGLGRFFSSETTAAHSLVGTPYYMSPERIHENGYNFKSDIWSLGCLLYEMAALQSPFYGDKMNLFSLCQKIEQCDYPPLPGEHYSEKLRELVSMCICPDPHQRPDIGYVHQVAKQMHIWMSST

Going from `O=C1C(Cl)=C(N2C(=O)CCC2=O)C(=O)c2ccccc21` to `O=C1Nc2ccc(S(=O)(=O)O)cc2/C1=C1/Nc2ccccc2/C1=N\O`, the ΔTm rises from -0.3 °C to 0.8 °C.

For `C[S+]([O-])c1ccc(-c2nc(-c3ccc(F)cc3)c(-c3ccncc3)[nH]2)cc1` (stereo not given) [SB-203580], the ΔTm was 0.2 °C.

biological target: Serine/threonine-protein kinase PAK 6 (Homo sapiens) (UniProt Q9NQU5)
Sequence (Q9NQU5 whole entry, looked up): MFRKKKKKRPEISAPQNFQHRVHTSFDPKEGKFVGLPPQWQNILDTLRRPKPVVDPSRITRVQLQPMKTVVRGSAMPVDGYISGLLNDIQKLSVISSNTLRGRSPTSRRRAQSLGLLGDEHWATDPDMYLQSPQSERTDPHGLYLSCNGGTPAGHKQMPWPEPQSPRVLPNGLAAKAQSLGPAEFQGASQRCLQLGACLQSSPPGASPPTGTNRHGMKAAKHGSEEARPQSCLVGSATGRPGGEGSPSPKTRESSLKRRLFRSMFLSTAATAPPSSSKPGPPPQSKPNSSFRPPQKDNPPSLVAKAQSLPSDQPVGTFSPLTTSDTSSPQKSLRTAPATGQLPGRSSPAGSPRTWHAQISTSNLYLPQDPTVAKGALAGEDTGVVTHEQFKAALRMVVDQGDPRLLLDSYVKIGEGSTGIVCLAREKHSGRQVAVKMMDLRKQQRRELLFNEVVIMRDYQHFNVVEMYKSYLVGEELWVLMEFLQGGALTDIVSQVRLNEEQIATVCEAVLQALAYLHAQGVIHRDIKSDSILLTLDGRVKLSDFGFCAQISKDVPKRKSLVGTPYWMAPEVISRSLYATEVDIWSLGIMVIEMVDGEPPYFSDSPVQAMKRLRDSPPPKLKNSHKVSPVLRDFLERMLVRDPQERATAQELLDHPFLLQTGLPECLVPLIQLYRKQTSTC

Compared with `O=C1C(Cl)=C(N2C(=O)CCC2=O)C(=O)c2ccccc21`, `O=C1Nc2ccc(S(=O)(=O)O)cc2/C1=C1/Nc2ccccc2/C1=N\O` is higher in ΔTm: -5 °C for the first, 3.2 °C for the second.

In the case of `C[S+]([O-])c1ccc(-c2nc(-c3ccc(F)cc3)c(-c3ccncc3)[nH]2)cc1` (stereo not given) [SB-203580], the ΔTm is reported as 0 °C.

biological target: Cyclin-dependent kinase 16 (Homo sapiens) (UniProt Q00536)

First: O=C1C(Cl)=C(N2C(=O)CCC2=O)C(=O)c2ccccc21
Second: O=C1Nc2ccc(S(=O)(=O)O)cc2/C1=C1/Nc2ccccc2/C1=N\O
The ΔTm of the first is lower: 0.4 °C for the first, 5.9 °C for the second.

For `C[S+]([O-])c1ccc(-c2nc(-c3ccc(F)cc3)c(-c3ccncc3)[nH]2)cc1` (stereo not given) [SB-203580], the ΔTm was -0.8 °C.

biological target: Serine/threonine-protein kinase pim-2 (Homo sapiens, UniProt Q9P1W9)
Sequence (Q9P1W9 whole entry, looked up): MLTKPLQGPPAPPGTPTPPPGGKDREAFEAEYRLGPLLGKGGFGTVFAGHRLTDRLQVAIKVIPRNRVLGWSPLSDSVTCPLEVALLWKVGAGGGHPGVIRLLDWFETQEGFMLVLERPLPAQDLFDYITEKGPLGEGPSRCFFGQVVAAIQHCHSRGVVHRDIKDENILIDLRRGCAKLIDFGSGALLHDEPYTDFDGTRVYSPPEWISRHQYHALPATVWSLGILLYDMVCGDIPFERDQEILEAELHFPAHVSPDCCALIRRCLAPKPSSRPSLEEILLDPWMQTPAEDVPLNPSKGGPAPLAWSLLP

First: O=C1C(Cl)=C(N2C(=O)CCC2=O)C(=O)c2ccccc21
Second: O=C1Nc2ccc(S(=O)(=O)O)cc2/C1=C1/Nc2ccccc2/C1=N\O
The ΔTm of the first is lower: -4.1 °C for the first, 3.5 °C for the second.

Work on `C[S+]([O-])c1ccc(-c2nc(-c3ccc(F)cc3)c(-c3ccncc3)[nH]2)cc1` (stereo not given) [SB-203580] yielded a ΔTm of 0 °C.

biological target: cAMP-dependent protein kinase catalytic subunit alpha (Homo sapiens) (UniProt P17612)

First: O=C1C(Cl)=C(N2C(=O)CCC2=O)C(=O)c2ccccc21
Second: O=C1Nc2ccc(S(=O)(=O)O)cc2/C1=C1/Nc2ccccc2/C1=N\O
The ΔTm of the first is lower: -0.2 °C for the first, 1.2 °C for the second.

Compound `C[S+]([O-])c1ccc(-c2nc(-c3ccc(F)cc3)c(-c3ccncc3)[nH]2)cc1` (stereo not given) [SB-203580] has a ΔTm of 0 °C.

biological target: Serine/threonine-protein kinase 10 (Homo sapiens) (UniProt O94804)
Sequence (O94804 whole entry, looked up): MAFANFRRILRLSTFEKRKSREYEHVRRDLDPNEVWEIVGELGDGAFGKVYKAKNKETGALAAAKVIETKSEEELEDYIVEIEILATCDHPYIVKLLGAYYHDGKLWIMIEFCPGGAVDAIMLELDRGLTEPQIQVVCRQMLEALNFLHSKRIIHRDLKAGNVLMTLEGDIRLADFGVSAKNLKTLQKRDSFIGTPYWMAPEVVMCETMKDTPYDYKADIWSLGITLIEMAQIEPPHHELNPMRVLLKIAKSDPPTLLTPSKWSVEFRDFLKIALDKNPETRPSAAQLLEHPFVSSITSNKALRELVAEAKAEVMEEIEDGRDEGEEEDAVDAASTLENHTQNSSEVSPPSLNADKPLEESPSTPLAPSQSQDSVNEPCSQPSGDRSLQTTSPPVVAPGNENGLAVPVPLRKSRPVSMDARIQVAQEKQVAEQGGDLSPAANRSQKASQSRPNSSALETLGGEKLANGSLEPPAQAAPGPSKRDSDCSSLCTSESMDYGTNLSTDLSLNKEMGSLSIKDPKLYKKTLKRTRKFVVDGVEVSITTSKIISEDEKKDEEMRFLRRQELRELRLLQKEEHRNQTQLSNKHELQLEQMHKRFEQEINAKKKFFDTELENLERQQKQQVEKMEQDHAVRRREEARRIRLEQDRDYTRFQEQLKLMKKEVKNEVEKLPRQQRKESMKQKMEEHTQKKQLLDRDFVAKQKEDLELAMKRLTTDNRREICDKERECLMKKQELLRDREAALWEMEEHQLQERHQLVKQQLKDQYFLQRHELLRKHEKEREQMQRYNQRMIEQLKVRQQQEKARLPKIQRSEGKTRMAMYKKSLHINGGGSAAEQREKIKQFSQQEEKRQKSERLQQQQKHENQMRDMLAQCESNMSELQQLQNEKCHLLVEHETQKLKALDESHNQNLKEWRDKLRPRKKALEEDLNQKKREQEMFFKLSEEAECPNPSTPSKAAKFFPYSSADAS

Compared with `O=C1C(Cl)=C(N2C(=O)CCC2=O)C(=O)c2ccccc21`, `O=C1Nc2ccc(S(=O)(=O)O)cc2/C1=C1/Nc2ccccc2/C1=N\O` is higher in ΔTm: -0.5 °C for the first, 0.5 °C for the second.

`C[S+]([O-])c1ccc(-c2nc(-c3ccc(F)cc3)c(-c3ccncc3)[nH]2)cc1` (stereo not given) [SB-203580] was tested, and the ΔTm was 2.7 °C.

biological target: T2, Serine/threonine-protein kinase 17A (Homo sapiens) (UniProt Q9UEE5)
T2 sequence (whole entry): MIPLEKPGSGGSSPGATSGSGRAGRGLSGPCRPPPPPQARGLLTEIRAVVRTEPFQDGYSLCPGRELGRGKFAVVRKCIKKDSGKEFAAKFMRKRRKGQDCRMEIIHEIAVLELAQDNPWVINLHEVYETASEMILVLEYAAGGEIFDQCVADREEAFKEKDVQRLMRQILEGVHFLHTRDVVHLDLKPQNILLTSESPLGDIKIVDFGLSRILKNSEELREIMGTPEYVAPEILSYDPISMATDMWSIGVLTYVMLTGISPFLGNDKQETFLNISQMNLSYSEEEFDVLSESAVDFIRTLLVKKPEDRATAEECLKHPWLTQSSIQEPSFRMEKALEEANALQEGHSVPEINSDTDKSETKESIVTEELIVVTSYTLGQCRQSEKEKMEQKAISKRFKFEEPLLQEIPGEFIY

First: O=C1C(Cl)=C(N2C(=O)CCC2=O)C(=O)c2ccccc21
Second: O=C1Nc2ccc(S(=O)(=O)O)cc2/C1=C1/Nc2ccccc2/C1=N\O
The ΔTm of the first is lower: 0.5 °C for the first, 9.8 °C for the second.

`C[S+]([O-])c1ccc(-c2nc(-c3ccc(F)cc3)c(-c3ccncc3)[nH]2)cc1` (stereo not given) [SB-203580] gave a ΔTm of 0 °C.

biological target: Serine/threonine-protein kinase 38 (Homo sapiens) (UniProt Q15208)
Sequence (Q15208 2-465 limits assumed): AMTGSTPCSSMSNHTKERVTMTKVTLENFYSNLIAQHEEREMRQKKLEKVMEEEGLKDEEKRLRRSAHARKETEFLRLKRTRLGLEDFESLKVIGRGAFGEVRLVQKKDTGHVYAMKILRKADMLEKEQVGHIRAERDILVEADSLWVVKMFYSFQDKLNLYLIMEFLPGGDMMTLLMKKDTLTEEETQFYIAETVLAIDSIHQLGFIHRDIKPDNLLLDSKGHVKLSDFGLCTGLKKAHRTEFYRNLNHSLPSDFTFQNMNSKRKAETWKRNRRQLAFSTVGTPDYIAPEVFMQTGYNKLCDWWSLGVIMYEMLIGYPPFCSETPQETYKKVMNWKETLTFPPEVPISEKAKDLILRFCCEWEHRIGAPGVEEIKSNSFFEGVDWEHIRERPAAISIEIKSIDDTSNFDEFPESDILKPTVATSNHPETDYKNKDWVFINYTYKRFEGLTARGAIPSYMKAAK

First: O=C1C(Cl)=C(N2C(=O)CCC2=O)C(=O)c2ccccc21
Second: O=C1Nc2ccc(S(=O)(=O)O)cc2/C1=C1/Nc2ccccc2/C1=N\O
The ΔTm of the first is lower: -1.4 °C for the first, 1.9 °C for the second.

`C[S+]([O-])c1ccc(-c2nc(-c3ccc(F)cc3)c(-c3ccncc3)[nH]2)cc1` (stereo not given) [SB-203580] was tested, and the ΔTm was 0.2 °C.

biological target: T3, Serine/threonine-protein kinase VRK3 (Homo sapiens) (UniProt Q8IV63)
T3 sequence (whole entry): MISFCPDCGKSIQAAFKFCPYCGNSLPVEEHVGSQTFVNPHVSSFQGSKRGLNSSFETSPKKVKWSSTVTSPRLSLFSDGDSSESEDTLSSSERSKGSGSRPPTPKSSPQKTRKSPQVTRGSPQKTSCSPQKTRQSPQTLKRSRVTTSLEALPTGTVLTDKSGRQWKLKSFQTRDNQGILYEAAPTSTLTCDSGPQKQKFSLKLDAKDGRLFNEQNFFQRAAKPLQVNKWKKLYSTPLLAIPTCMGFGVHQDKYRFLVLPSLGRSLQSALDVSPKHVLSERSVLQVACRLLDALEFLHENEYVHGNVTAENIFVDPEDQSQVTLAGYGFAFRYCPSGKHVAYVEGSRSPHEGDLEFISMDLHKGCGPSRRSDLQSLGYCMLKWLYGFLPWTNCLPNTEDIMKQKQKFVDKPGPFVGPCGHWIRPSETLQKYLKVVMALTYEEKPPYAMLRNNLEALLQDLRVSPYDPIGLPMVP

Going from `O=C1C(Cl)=C(N2C(=O)CCC2=O)C(=O)c2ccccc21` to `O=C1Nc2ccc(S(=O)(=O)O)cc2/C1=C1/Nc2ccccc2/C1=N\O`, the ΔTm rises from -0.7 °C to 1.9 °C.

In the case of `C[S+]([O-])c1ccc(-c2nc(-c3ccc(F)cc3)c(-c3ccncc3)[nH]2)cc1` (stereo not given) [SB-203580], the ΔTm is reported as 0 °C.
